Measurements reported in article PMC9241695, “Selective Metal Chelation by a Thiosemicarbazone Derivative Interferes with Mitochondrial Respiration and Ribosome Biogenesis in Candida albicans” (Microbiology Spectrum, 2022).
≈ marks a conversion by molar mass, not a printed value.

What was measured:
C. albicans SC5314 [1] = experiment: Antifungal susceptibility testing, microbroth dilution MIC; assay type: cell-based; conditions: Candida albicans, SC5314, read-out: MIC against C. albicans SC5314 (Fig. S2 legend)
Description: Compound library. The thiosemicarbazone derivatives Triapine and COTI-2 were purchased from Med Chem Express (MCE). The other 87 thiosemicarbazones used in this study were previously synthesized by our collaborators (1, 2). Their structures are shown in Table 1 and Table S1 to help the reader clearly understand the relationship between structure and activity.
Strains and culture conditions. Clinically derived C. albicans isolates, including G5, F5, and Gu5, were kindly provided by Professor Joachim Morschhäuser of the University of Würzburg. Other clinical C. albicans isolates were kindly donated by Professor Qingguo Qi of Shandong University and Qianfoshan Hospital of Shandong Province Other Candida strains were obtained from Jinan Central Hospital.
The zap1 mutant and its complemented strain were kindly provided by Professor Aaron P. Mitchell of Carnegie Mellon University (3). The C. neoformans strains used in this study was kindly donated by Professor Guojian Liao of Southwest University and A. fumigatus strain used in this study was provided by Professor Ling Lu of Nanjing Normal University. Before in vitro and in vivo experiments, all C. albicans strains were grown on YPD agar plates. After culturing at 30°C for 24 h, colonies of each strain were cultured in liquid YPD medium at 30°C with continuous shaking […]
Antifungal susceptibility testing. To determine in vitro antifungal activities, the microbroth dilution method was carried out in RPMI1640 medium according to the guidelines of the Clinical and Laboratory Standards Institute (4, 5). The initial concentration in RPMI1640 medium was 1 × 10^3 CFU/mL for the C. albicans and C. neoformans suspensions but 1 × 10^4 CFU/mL for A. fumigatus. The range of final drug concentrations was 0.0156–64 μg/mL. The plates were incubated at35°C for 24 […]
h (for C. albicans, C. krusei, C. tropicalis, C. parapsilosis) or 48 h (for C. neoformans, A. fumigatus). The MIC was determined based on visible growth inhibition compared with the control. All experiments were performed in duplicate. […]

C. albicans SC5314 [2] = experiment: Respiratory activity by CTC staining; assay type: cell-based, Candida albicans; conditions: 6 h, 1 mM CTC; 19ak 0.125-1 μg/mL, TPEN 0.05-0.4 μg/mL
Procedure: h (for C. albicans, C. krusei, C. tropicalis, C. parapsilosis) or 48 h (for C. neoformans, A. fumigatus). The MIC was determined based on visible growth inhibition compared with the control. All experiments were performed in duplicate.
Cytotoxicity testing. The cell lines HK2 and 16HBE were used to evaluate the cytotoxicity of 19ak, 19k and 19t. Cells in DMEM containing 10% fetal bovine serum (Gibco) were seeded in 96-well tissue culture plates at a cell density of 1 × 10^4 cells/mL and incubated for 24 h to allow adhesion. The supernatant was then replaced with fresh DMEM containing various concentrations of 19ak, 19k and 19t. […]
The effects of the compounds on cell proliferation were detected by measuring the absorbance at 570 nm in a microplate reader (BioTek, VT, USA). […]
the fluorescent complex […] (CTF) is commonly used to indicate the intensity of microbial respiration. C. albicans SC5314 treated with 19ak was stained with 1 mM CTC for 30 min, followed by flow cytometry analysis of respiratory activity based on fluorescence intensity. Images of cells were obtained using a fluorescence microscope (IX71, Olympus, Tokyo, Japan). […] After an additional 2 h of incubation, OD450 in each well was detected with a microplate reader. […]
Mitochondrial complex activity was expressed as nmol/min/mg protein. […]

C. albicans SC5314 [3] = experiment: qPCR of genes associated with ribosome biogenesis; assay type: cell-based, Candida albicans; conditions: CPX 0.5 or 2 μg/mL 8 h; DFO 64 µg/mL 6 h; TPEN 0.05 or 0.2 μg/mL 6 h
Procedure: Determination of SOD activity. SOD activity was measured using the Superoxide Dismutase Activity Assay Kit (Njjcbio, Nanjing, China) following the manufacturer's instructions. An overnight culture of C. albicans SC5314 was adjusted to 1 × 10^7 cells/mL with RPMI1640 medium and treated with 19ak at a final concentration of 0, 0.125, 0.25, 0.5, or 1 μg/mL for 6 h. After collection by centrifugation, the cells were broken by glass beads in extraction buffer and centrifuged at 4°C. The absorbance of the supernatant of each sample was measured with a microplate reader at450 nm.
Determination of catalase (CAT) activity. CAT activity was measured by using a Catalase Assay Kit (Solarbio, Beijing, China) following the manufacturer's instructions. An overnight culture of C. albicans SC5314 was adjusted to 1 × 10^6 cells/mL with RPMI1640 medium and treated as described above for SOD activity.
The decomposition of H2O2 is directly accompanied by a decrease in absorbance at 240 nm, and the difference in absorbance per unit time (ΔA240) is a measure of […]
Quantitative real-time polymerase chain reaction (qPCR) analysis. C. albicans SC5314 cells (1 × 10^6 cells/mL) were incubated with or without 19ak (0.5,2 […]
Total RNA was extracted using the hot phenol method, and the RNA quality was analyzed using a spectrophotometer (Eppendorf, Hamburg, Germany). The RNA was converted to cDNA using a cDNA Reverse
Transcription kit (Accurate Biotechnology, Hunan, China). PCR detection based on SYBR Green was performed on an Eppendorf real-time PCR system (Eppendorf, […]
Drug resistance study. Drug resistance studies were carried out by repeatedly treating C. albicans with an antifungal agent followed by MIC determination using […]

c1ccc(CN(CCN(Cc2ccccn2)Cc2ccccn2)Cc2ccccn2)nc1 [TPEN, N,N,N′,N′-tetrakis (2-pyridylmethyl) ethylenediamine, reference compound]
MIC (C. albicans SC5314 [1]): 0.05 µg/mL (≈ 0.118 µM)
Mitochondrial respiratory activity (CTC fluorescence intensity) (C. albicans SC5314 [2]): failed to observe reduced mitochondrial respiration
Expression of genes associated with ribosome biogenesis (qPCR) (C. albicans SC5314 [3]): downregulated
